According to patent US12704520B2, “Melanogenesis detection method using FAM86A” (Research & Business Foundation Sungkyunkwan University, priority 2019, dated 2026):

Assays:
FAM86 (NM_027446.2) = assay: shRNA mean knockdown level of FAM86 (Table 1); format: cell-based; settings: Mus musculus FAM86, pLKO.1 vector
B16F10 cells = assay: Fontana-Masson staining after FAM86A knockdown; format: cell-based, mouse; settings: α-MSH 100 nM, 48 hours, microscope
Procedure: The B16F10 cells cultured in Example 1 were seeded in 6-well plates at a density of 5×10^4 cells per well, grown for 24 hours, and FAM86A shRNA represented by SEQ ID NO: 17 was used for knockdown of the FAM86A gene. The cells were treated with α-MSH at 100 nM. The resulting cells were cultured in an incubator under conditions of 37° C. and 5% CO2 for 48 hours, washed twice with PBS, and 1 mL of a 1% ammoniacal silver nitrate solution was added to each well, followed by heating a plate in a 60° C. dryer for 1 hour. Subsequently, the plate was washed three times with running water, and treated with 1 mL of a 0.2% gold chloride solution per well for 30 seconds. Afterward, the plate was washed twice with running water, treated with 1 mL of a 5% sodium thiosulfate solution per well, washed twice with running water, treated with 1 mL of a 0.5% neutral red solution per well for 2 minutes, and then washed with running water. The reaction result was confirmed under a microscope.

[1] = test system: tyrosinase, TYRP-1, TYRP-2 and MITF genes; assay: Real-time PCR of melanogenesis-associated genes after FAM86A knockdown; format: cell-based, mouse; settings: B16F10 cells, 48 hours
Procedure: The B16F10 cells cultured in Example 1 were seeded in 6-well plates at a density of 5×10^4 cells per well, grown for 24 hours, and FAM86A shRNA represented by SEQ ID NO: 17 was used for knockdown of the FAM86A gene. The cells were incubated in an incubator under conditions of 37° C. and 5% CO2 for 48 hours. After 48 hours, the medium was completely removed, the cells were decomposed with TRIzol and neutralized using BCP. The neutralized liquid was treated with isopropanol to precipitate mRNA. Subsequently, only the precipitated mRNA was collected using a centrifuge, and used for the experiment. Intracellular mRNA was synthesized into cDNA using a cDNA kit, and the expression levels of tyrosinase, TYRP-1, TYRP-2 and MITF genes, which are important for melanogenesis, were determined by PCR.

SEQ ID NO: 17: FAM86 shRNA (Mus musculus, NM_027446.2), pLKO.1 vector, target sequence SEQ ID NO: 27; used in the examples (DNA CCGGGTCTATGTAGCCTATACTATCCTCGAGGATAGTATAGGCTACATAGACTTTTTG)
Mean Knock down level (FAM86 (NM_027446.2)): 0.87
presence of melanin (Fontana-Masson staining) (B16F10 cells): more present
expression level of MITF gene [1]: significantly increased
expression level of TYRP-1 gene [1]: significantly increased
expression level of TYRP-2 gene [1]: significantly increased
expression level of tyrosinase gene [1]: significantly increased
